For experiment [1], the system named is PDGF-stimulated PDGFR tyrosine phosphorylation. As to the kind of experiment: Inhibition of PDGF-stimulated PDGFR tyrosine phosphorylation in NIH 3T3 cells (anti-phosphotyrosine Western blot). The note with it: concentrations as high as 10 mM. It counts as cell-based.
For experiment [2], the system named is B16-F10 melanoma. The experiment is described as follows: B16-F10 melanoma tumor growth in immune-competent mice. Type of experiment: in vivo. The conditions noted are these: immune-competent mouse model.
In experiment [3] the test system is IGF-1 stimulated IGF-1R tyrosine phosphorylation. As to the kind of experiment: Inhibition of IGF-1 stimulated IGFR tyrosine phosphorylation in IGFR/3T3 cells. It counts as cell-based. The note with it: 100 μM; IGFR/3T3, IGF-1 stimulated. Here is the method:
The ability of the GFB library to block the ability of IGF-1 to stimulate the IFG-1 R tyrosine phosphorylation and MAP kinase activation is evaluated using the cell assay described above with IGF-1R/3T3 cells as target cell. […] A preferred embodiment of the invention is a compound that binds to an insulin-like growth factor-1, of the general structure III, wherein R is n-butyl, n-propyl, or benzyl, and X1, X2, X3, and X4 optionally comprise identical cyclic peptide loops of the general structure II, and wherein R1, R2, R3, and R4 are each amino acid side chains that define a tetrapeptide sequence, wherein said tetrapeptide is covalently attached at the amino and carboxy termini of said tetrapeptide to a 3-aminomethyl-5-aminobenzamide linking group.

For experiment [4], the system named is HRGβ-activation of Erk1/Erk2. As to the kind of experiment: HRGβ activation of Erk1/Erk2 in SkBr3 breast carcinoma cells overexpressing ErbB2. It counts as cell-based, human. The note with it: concentrations as high as 100 μM. The method, then: (§1) In other experiments, starved NIH 3T3 cells (PDGF-AA, PDGF-BB, aFGF, bFGF), NIH 3T3 cells overexpressing EGFR. IGF-1R or Flk-1 and the human breast carcinoma SkBr3 that overexpresses ErbB2 (HRGβ) are pretreated with GFB-111 (100 μM) for 5 min before 10 min stimulation with the indicated growth factors at the concentrations shown above and aFGF (10 ng/ml), bFGF (50 ng/ml), IGF-1 (50 ng/ml) and HRGβ (10 ng/ml). Cell lysates are then immunoblotted with anti-phospho Erk1/Erk2 as described above.

Experiment [5] concerns the target T1, VEGF (Homo sapiens, UniProt P15692).
T1 construct: host or cells: NIH 3T3 cells overexpressing Flk-1 carry the receptor
As to the kind of experiment: Inhibition of [125I]-VEGF binding to NIH 3T3 cells overexpressing VEGFR (Flk-1). Here is the method:
(§2) NIH 3T3 (PDGF) or NIH 3T3 cells overexpressing either EGFR (EGF), IGFR (IGF) or Flk-1 (VEGF), are incubated with [^125I]-PDGF, [^125I]-EGF, [^125I]-IGF or [^125I]-VEGF, respectively (50,000 cpm per well) and increasing concentrations of GFB-111 or GFB-116. Cells are incubated at 4° C. for 1-3 h. After discarding media, the cells are washed 3 times with PBS and three times with Tris 25 mM pH 8.0, 1% T-X-100, 10% glycerol, 1% SDS. Lysates plus wash are counted. Excess of cold growth factors is used to obtain non-specific binding levels.
(§3) Whether GFB 111 can block [^125I]-PDGF-BB specific binding in NIH 3T3 cells is determined by pre-treatment of the PDGF-BB with increasing concentrations of GFB-111. FIG. 2C illustrates that in the absence of GFB-111, [^125I]-PDGF-BB is bound by NIH3T3 cells. However, pre-treatment with increasing concentrations of GFB-111, results in a concentration-dependent decrease in PDGF-BB binding.

Experiment [6] concerns angiogenesis in DaOY tumors. As to the kind of experiment: Angiogenesis: microvessel count in DaOY tumors. It counts as in vivo, nude mice. Here is the method:
(§4) On the indicated termination day of each nude mouse experiment described above, (see also Table 2), the tumors are extracted and half frozen at −70° C., and half is fixed in 10% neutral buffered formalin for 6 hrs. After fixation the tissue samples are processed into paraffin blocks. Four micrometer-thick tissue sections are obtained from the paraffin blocks and stained with hematoxylin and eosin (H&E) (Richard-Allan Scientific, Kalamazoo, Mich.) using standard histologic techniques. Tissue sections are also subjected to immunostaining for Factor VIII using the avidin biotin peroxidase complex technique (Vectastatin Elite ABC Kit, Vector, Burlingame, Calif.). Rabbit polyclonal FVIII antibody (Von Willebrand Factor, Dako Corporation, Carpinteria, Calif.) is used at 1:400 dilution, following microwave antigen retrieval (4 cycles of 5 minutes each on high in 0.1M citrate buffer).

The subject of experiment [7] is bFGF-activation of Erk1/Erk2. The experiment is described as follows: bFGF activation of Erk1/Erk2 in NIH 3T3 cells. Type of experiment: cell-based. The conditions noted are these: concentrations as high as 100 μM. Here is the method:
as §1

For experiment [8], the system named is angiogenesis in U87-MG tumors. As to the kind of experiment: Angiogenesis: Factor VIII immunostaining and microvessel count in U87MG tumors. It counts as in vivo, nude mice. The note with it: for Microvessel count (Mean ± SD) 250X / Microvessel count (Mean ± SD) 400X: U87-MG tumor. The method, then:
as §4

The test system of experiment [9] is PDGF-AA stimulated PDGF receptor phosphorylation and Erk1/Erk2 activation. As to the kind of experiment: PDGF-AA stimulation of PDGF receptor phosphorylation and Erk1/Erk2 activation in NIH 3T3 cells. It counts as cell-based. The conditions noted are these: NIH 3T3, PDGF-AA 10 ng/ml. The method, then:
Starved NIII 3T3 cells (PDGF-BB and PDGF-AA), NIH 3T3 cells overexpressing either EGFR (EGF) or Flk-1 (VEGF) are pre-treated with the indicated concentrations of GFB-111 for 5 minutes before 10 minutes of stimulation with PDGF-BB (10 ng/ml), PDGF-AA (10 ng/ml), EGF (100 ng/ml) and VEGF (50 ng/ml). Cell lysates are run on SDS-PAGE gels, then transferred to nitrocellulose and Western blotted with anti-phosphotyrosine (4G 10) or anti-phosphorylated Erk1/Erk2 (New England Biolabs).

The subject of experiment [10] is angiogenesis in C6 tumors. As to the kind of experiment: Angiogenesis: microvessel count in C6 tumors. Type of experiment: in vivo, nude mice. Here is the method:
as §4

The subject of experiment [11] is human medulloblastoma DaOY. As to the kind of experiment: Antitumor efficacy, DaOY xenograft in nude mice. Type of experiment: in vivo. The conditions noted are these: 50 mg per kg per day.
Experiment [12] addresses T2, EGF (Homo sapiens, UniProt P01133).
T2 construct: host or cells: NIH 3T3 cells overexpressing EGFR carry the receptor
As to the kind of experiment: Inhibition of [125I]-EGF binding to NIH 3T3 cells overexpressing EGFR. The conditions noted are these: 10 μM. The method, then: as §2, §3

T1 sequence (P15692 27-191 isoform P15692-4, species assumed): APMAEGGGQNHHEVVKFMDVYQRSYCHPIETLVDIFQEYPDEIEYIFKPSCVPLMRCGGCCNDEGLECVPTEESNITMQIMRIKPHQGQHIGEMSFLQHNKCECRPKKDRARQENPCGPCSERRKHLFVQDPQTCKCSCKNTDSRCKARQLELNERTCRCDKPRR
T2 sequence (P01133 971-1023 limits assumed, species assumed): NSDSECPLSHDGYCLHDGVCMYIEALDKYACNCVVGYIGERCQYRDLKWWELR

In the case of GKGK [GFB-116], in experiment [1], the “Inhibition of PDGF-stimulated PDGFR tyrosine phosphorylation” value is recorded as “does not inhibit”. Also, in experiment [2], the “Inhibition of growth of B16-F10 melanoma” value is listed as “effective”.
For `CCCCOc1c2cc(C(=O)Nc3cc4cc(c3)C(=O)NCC(=O)N[C@@H](CC(=O)O)C(=O)NCC(=O)N[C@@H](Cc3ccc(O)cc3)C(=O)NC4)cc1Cc1cc(C(=O)Nc3cc4cc(c3)C(=O)NCC(=O)N[C@@H](CC(=O)O)C(=O)NCC(=O)N[C@@H](Cc3ccc(O)cc3)C(=O)NC4)cc(c1OCCCC)Cc1cc(C(=O)Nc3cc4cc(c3)C(=O)NCC(=O)N[C@@H](CC(=O)O)C(=O)NCC(=O)N[C@@H](Cc3ccc(O)cc3)C(=O)NC4)cc(c1OCCCC)Cc1cc(C(=O)Nc3cc4cc(c3)C(=O)NCC(=O)N[C@@H](CC(=O)O)C(=O)NCC(=O)N[C@@H](Cc3ccc(O)cc3)C(=O)NC4)cc(c1OCCCC)C2` [GFB-111], in [3], the “% Inhibition at 100 μM IGF1R-Y-P” value is −12.4%. The “HRGβ-activation of Erk1/Erk2” value in experiment [4] is reported as “minimally affected”. This compound also registered an inhibition at 10 µM in experiment [5] of 50%. In addition, the “Microvessel count (Mean ± SD) 250X” value in [6] (DaOY tumor, 50 mpk) came out at 7.20 ± 2.52; in experiment [8] (100 mpk), 7.73 ± 2.61; in experiment [8] (200 mpk), 5.13 ± 3.10; in experiment [10] (C6 tumor, 50 mpk), 14.27 ± 4.79. Further, the “Microvessel count (Mean ± SD) 400X” value stood at 4.80 ± 1.37 in experiment [6] (DaOY tumor, 50 mpk); 5.20 ± 1.71 in experiment [8] (100 mpk); 3.07 ± 1.94 in [8] (200 mpk); 7.97 ± 2.83 in experiment [10] (C6 tumor, 50 mpk). The “Inhibition of angiogenesis” value in experiment [6] (DaOY tumors) is “no effect”; in experiment [8] (U87MG tumors), “strongly”; in experiment [10] (C6 tumors), “to a lesser degree”. Besides, the “bFGF-activation of Erk1/Erk2” value in experiment [7] is given as “minimally affected”. In addition, in experiment [8] (U87MG, day 32, 50, 100 and 200 mg per kg), the “Factor VIII immunostaining in tumors” value is “decreased in a dose-dependent manner”. Also, the “PDGF-AA stimulation of PDGF receptor phosphorylation and Erk1/Erk2 activation” value in experiment [9] is given as “blocked”. The “Growth of DaOY tumors” value in experiment [11] was “minimally affected”. Further, the “Effect on [125I]-EGF binding” value in [12] was “lack of significant effects”.

For the origin of these results see US8361970B2, “Growth factor binding molecules” (University of South Florida, priority 2000, dated 2013).
